Experimental findings from patent US10144730B2, “Inhibitors of c-Jun-N-terminal kinase (JNK)” (Dana-Farber Cancer Institute, Inc., priority 2011, dated 2018) are described below.

Where only a bound is given, the exact number is not on record here.

For one test, the system named is JNK. The test is described as follows: Binding kinetics (pulse-chase) assay, ATP-biotin labeling of JNK in A375 cells. Type of test: cell-based. As to conditions: 1 μM compound. The procedure:
A375 cells were incubated with inhibitors for the indicated amount of time after which cell lysates were prepared and labeled with ATP-biotin. Biotinylated proteins were pulled down with streptavidin beads and material bound to the beads was eluted and separate by SDS-PAGE followed by Western blot analysis for JNK.
A375 cells (ATCC® CRL-1619™) were pre-treated with 1 μM compound for the indicated amounts of time. Remove the medium and wash 3 times with PBS. Resuspend the cell pellet with 1 mL Lysis Buffer (1% NP-40, 1% CHAPS, 25 mM Tris, 150 mM NaCl, Phosphatase Inhibitor Cocktail, Roche 04906845001, and Protease Inhibitor Cocktail Roche 11836170001). Rotate end-to-end for 30 min at 4° C. Lysates were cleared by centrifugation at 14000 rpm for 15 min in the Eppendorf. The cleared lysates gel filtered into Kinase Buffer (0.1% NP-40, 20 mM HEPES, 150 mM NaCl, Phosphatase Inhibitor Cocktail, and Protease Inhibitor Cocktail) using Bio-Rad 10DG colums. The total protein concentration of the gel-filtered lysate should be around 5-15 mg/ml. […]
In order to evaluate the kinetics with which JNK-IN-5 could covalently modify JNK in cells, a pulse-chase assay was developed . […] Streptavidin affinity chromatography is then used to isolate all biotinylated proteins and JNK protein is detected following SDS-PAGE and Western blotting (FIG. 8). […]

In test [1] the test system is c-Jun phosphorylation. As to the kind of experiment: LanthaScreen TR-FRET cell assay for c-Jun phosphorylation in HeLa cells. Type of test: cell-based. As to conditions: Homo sapiens; for IC50: HeLa cells, rounded values of the text, read-out: IC50 for inhibiting c-Jun phosphorylation in HeLa cells; for EC50: Hela cells, TNF-α stimulation, read-out: p-c-Jun EC50 (nM) Hela. The procedure:
Phosphorylation was determined by measuring the time resolved FRET (TR-FRET) between a terbium labeled phospho-c-Jun specific antibody and GFP. The cells were plated in white tissue culture treated 384 well plates at a density of 10,000 cell per well in 32 μL assay medium (Opti-MEM®, supplemented with 0.5% charcoal/dextran-treated FBS, 100 U/ml penicillin and 100 μg/ml streptomycin, 0.1 mM nonessential amino acids, 1 mM sodium pyruvate, 25 mM Hepes, pH 7.3, and lacking phenol red). After overnight incubation, cells were pretreated for 90 minutes with compound (at indicated concentration) diluted in 4 μL assay buffer followed by 30 min of stimulation with 5 ng/ml of TNF-α in 4 μL assay buffer (final assay volume was 40 μl). The medium was then removed by aspiration, and the cells were lysed by adding 20 μl of lysis buffer (20 mM Tris-HCl, pH 7.6, 5 mM EDTA, 1% Nonidet P-40 substitute, 5 mM NaF, 150 mM NaCl, and 1:100 protease and phosphatase inhibitor mix, SIGMA P8340 and P2850, respectively). The lysis buffer included 2 nM of the terbium-labeled anti-c-Jun (pSer73) detection antibodies (Life Technologies). After allowing the assay to equilibrate for 60 minutes at room temperature, TR-FRET emission ratios were determined on a BMG Pherastar fluorescence plate reader (BMG Labtech, Cary, N.C.) using the following parameters: excitation at 340 nm; emission at 520 nm and 490 nm; 100 μs lag time; 200 μs integration time; and emission ratio=Em520/Em490. All data were analyzed and plotted using Graphpad Prism 4.
(§1) In parallel with biochemical evaluation, the ability of the compounds to inhibit JNK activity in cells was investigated using two independent assays formats. This is a critical issue because there are several reported JNK inhibitors with nanomolar biochemical potency that translate into micromolar cellular inhibitors. The most well characterized direct phosphorylation substrate of JNK is the transcription factor c-Jun.
(In general: In TR-FRET formats the signal depends on donor and acceptor labels being close together.)

A further test addresses JNK3 (Homo sapiens, UniProt P53779). As to the kind of experiment: Biochemical JNK3 kinase inhibition (Z'-lyte format). The settings on record: Table 2.
For a further test, the target named is JNK1 (Homo sapiens, UniProt P45983). As to the kind of experiment: Biochemical JNK1 kinase inhibition (Z'-lyte format). The settings on record: Table 2.
A further test has as its target JNK2 (Homo sapiens, UniProt P45984). As to the kind of experiment: Biochemical JNK2 kinase inhibition (Z'-lyte format). The settings on record: Table 2.
The test system of test [2] is c-Jun phosphorylation. The test is described as follows: High throughput microscopy of c-Jun phosphorylation in A375 cells. The test is classed as cell-based. The settings on record: Homo sapiens, A-375; for IC50: rounded values of the text, read-out: IC50 for inhibiting c-Jun phosphorylation in A375 cells. The method, then:
Cells were fixed in 2% paraformaldehyde for 10 min at room temperature and washed with PBS-T (Phosphate Buffered Saline, 0.1% Tween 20). Cells were permeabilized in methanol for 10 min at room temperature, washed with PBS-T, and blocked in Odyssey Blocking Buffer (LI-COR Biosciences) for 1 hour at room temperature. Cells were incubated overnight at 4° C. with antibody specific for Erk1/2(pT202/pY204), Akt(pS473), c-Jun(pS73), pP38(T180/Y182) and pSTAT3(Y705) (Cell Signaling Technology), pRSK1(S380) and pMSK1(S376) (Epitomics), and NF-κB (Santa Cruz Biotechnology) diluted 1:400 in Odyssey Blocking Buffer. […] Cells were washed twice with PBS and imaged in an imageWoRx high-throughput microscope (Applied Precision). Data were plotted using DataPflex.
as §1

The next test has as its system phosphorylation of STAT3. As to the kind of experiment: High-throughput microscopy, phosphorylation of STAT3. The test is classed as cell-based. The settings on record: Homo sapiens, A-375, A375 cells, IL-6 stimulation, read-out: Cellular EC50 pSTAT3. The method, then: (§2) A375 cells were stimulated with anisomycin (FIGS. 14A and 14C to 14F), IGF-1 (FIG. 14B), IL-6 (FIG. 14G), and TNF-α (FIG. 14H) for sixty minutes. The output of multiple signaling pathways was measured using high throughput microscopy at multiple concentrations of four JNK inhibitors and a control compound specific to each pathway DMSO (FIG. 14A), MK2206 (allosteric Akt inhibitor, Haoyuan Chemexpress Co., Limited. Hirai, et al., 2010) (FIG. 14B), PD0325901 (allosteric Mek inhibitor, Haoyuan Chemexpress Co., Limited. Barrett, et al., 2008) (FIGS. 14C and 14D), SB239063 (ATP-competitive p38 inhibitor, Haoyuan Chemexpress Co., Limited. Underwood et al., 2000) (FIGS. 14E and 14F), KIN001-040 (ATP-competitive JAK1,2,3 inhibitor, Haoyuan Chemexpress Co., Limited. Thompson et al., 2002) (FIG. 14G), and KIN001-208 (IKK inhibitor VIII, Haoyuan Chemexpress Co., Limited., Murata, et al., 2004) (FIG. 14H).
(§3) Cells were plated at 7500 cells/well in 96-well microscopy plates (Corning) in recommended media for 24 hours, and then starved in media lacking serum for 16 hours. Cells were pre-treated for 180 minutes with 10-fold stock solutions of JNK inhibitors and for 10 min with control compounds MK2206, PD0325901, SB239063, KIN040, and KIN208 and treated with 10-fold stock solutions of IGF-1, IL-6, TNF-α (all PeproTech), or anisomycin for 60 minutes. Cells were fixed in 2% paraformaldehyde for 10 min at room temperature and washed with PBS-T (Phosphate Buffered Saline, 0.1% Tween 20). Cells were permeabilized in methanol for 10 min at room temperature, washed with PBS-T, and blocked in Odyssey Blocking Buffer (LI-COR Biosciences) for 1 hour at room temperature. Cells were incubated overnight at 4° C. with antibody specific for Erk1/2(pT202/pY204), Akt(pS473), c-Jun(pS73), pP38(T180/Y182) and pSTAT3(Y705) (Cell Signaling Technology), pRSK1(S380) and pMSK1(S376) (Epitomics), and NF-κB (Santa Cruz Biotechnology) diluted 1:400 in Odyssey Blocking Buffer. Cells were washed three times in PBS-T and incubated with rabbit-specific secondary antibody labeled with Alexa Fluor 647 (Invitrogen) diluted 1:2000 in Odyssey Blocking Buffer. Cells were washed once in PBS-T and once in PBS and incubated in 250 ng/ml Hoechst 33342 (Invitrogen) and 1:1000 Whole Cell Stain (blue; Thermo Scientific) solution. Cells were washed twice with PBS and imaged in an imageWoRx high-throughput microscope (Applied Precision). Data were plotted using DataPflex. […]

Another test concerns phosphorylation of RSK. As to the kind of experiment: High-throughput microscopy, phosphorylation of RSK. Type of test: cell-based. As to conditions: Homo sapiens, A-375, A375 cells, anisomycin stimulation, read-out: Cellular EC50 pRSK. The procedure:
as §2, §3

The test system of another test is phosphorylation of Erk. The test is described as follows: High-throughput microscopy, phosphorylation of Erk. Type of test: cell-based. The settings on record: Homo sapiens, A-375, A375 cells, anisomycin stimulation, read-out: Cellular EC50 pErk. The procedure: as §2, §3
In a further test the test system is phosphorylation of Akt. As to the kind of experiment: High-throughput microscopy, phosphorylation of Akt. The test is classed as cell-based. As to conditions: Homo sapiens, A-375, A375 cells, IGF-1 stimulation, read-out: Cellular EC50 pAkt. The method, then: as §2, §3
In the next test the test system is phosphorylation of p38. The test is described as follows: High-throughput microscopy, phosphorylation of p38. The settings on record: Homo sapiens, A-375, A375 cells, anisomycin stimulation, read-out: Cellular EC50 pP38. Type of test: cell-based. The method, then: as §2, §3
For test [3], the system named is NF-kB nuclear translocation. As to the kind of experiment: High-throughput microscopy, NF-kB nuclear translocation. The test is classed as cell-based. The settings on record: Homo sapiens, A-375, A375 cells, TNF-α stimulation, read-out: Cellular EC50 NF-kB. The method, then:
as §2, §3

The mark [4] stands for this setting: A375 cells, anisomycin stimulation, read-out: p-c-Jun EC50 (nM) A375.
Setting [5] is: Table 5, A375, read-out: E50/A375.

Chain of JNK3 (P53779 whole entry): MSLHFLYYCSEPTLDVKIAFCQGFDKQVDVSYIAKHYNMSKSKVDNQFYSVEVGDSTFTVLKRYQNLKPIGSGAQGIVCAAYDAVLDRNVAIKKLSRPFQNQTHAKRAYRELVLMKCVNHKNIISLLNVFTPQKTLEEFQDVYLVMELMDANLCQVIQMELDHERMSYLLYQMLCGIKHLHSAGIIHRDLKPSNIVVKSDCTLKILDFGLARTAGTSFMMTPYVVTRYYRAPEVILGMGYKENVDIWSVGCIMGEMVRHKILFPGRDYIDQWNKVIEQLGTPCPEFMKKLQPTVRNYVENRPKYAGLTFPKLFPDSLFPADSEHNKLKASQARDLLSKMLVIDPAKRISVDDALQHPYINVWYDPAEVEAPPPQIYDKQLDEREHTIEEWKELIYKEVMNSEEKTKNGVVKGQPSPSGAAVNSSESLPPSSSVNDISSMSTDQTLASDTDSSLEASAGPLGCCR
Chain of JNK1 (P45983 whole entry): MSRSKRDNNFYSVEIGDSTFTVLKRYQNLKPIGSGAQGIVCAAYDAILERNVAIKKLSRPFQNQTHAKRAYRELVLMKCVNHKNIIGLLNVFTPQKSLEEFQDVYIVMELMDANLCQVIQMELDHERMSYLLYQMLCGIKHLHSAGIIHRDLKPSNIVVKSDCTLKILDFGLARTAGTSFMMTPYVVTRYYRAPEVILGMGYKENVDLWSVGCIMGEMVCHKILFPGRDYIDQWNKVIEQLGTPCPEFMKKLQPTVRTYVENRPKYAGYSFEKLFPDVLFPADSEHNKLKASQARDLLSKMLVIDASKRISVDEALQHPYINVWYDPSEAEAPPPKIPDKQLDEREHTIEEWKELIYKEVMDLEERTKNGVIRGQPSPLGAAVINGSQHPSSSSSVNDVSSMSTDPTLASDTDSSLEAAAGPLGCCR
Chain of JNK2 (P45984 whole entry): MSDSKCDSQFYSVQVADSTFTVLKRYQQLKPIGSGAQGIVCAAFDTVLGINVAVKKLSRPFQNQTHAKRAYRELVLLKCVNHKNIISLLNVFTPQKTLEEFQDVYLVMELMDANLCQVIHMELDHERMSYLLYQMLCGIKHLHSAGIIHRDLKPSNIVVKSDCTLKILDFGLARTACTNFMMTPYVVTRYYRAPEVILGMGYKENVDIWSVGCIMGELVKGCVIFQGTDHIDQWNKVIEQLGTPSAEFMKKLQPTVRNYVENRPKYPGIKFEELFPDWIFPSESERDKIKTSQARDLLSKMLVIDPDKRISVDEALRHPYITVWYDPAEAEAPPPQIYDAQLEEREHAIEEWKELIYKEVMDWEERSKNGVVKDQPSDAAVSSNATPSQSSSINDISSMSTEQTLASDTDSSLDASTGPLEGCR

For `C=CC(=O)Nc1cccc(C(=O)Nc2ccc(Nc3nccc(-c4cccnc4)n3)cc2)c1` [JNK-IN-5], the “incubation time to fully protect JNK from labeling by ATP-biotin” value in the test with JNK is “approximately three”. Besides, the IC50 (as a rule, the concentration needed to halve the response being measured) was roughly 100 nM in the test with c-Jun phosphorylation [1]; 0.96 nM at JNK3; 2.11 nM against JNK1; 1.93 nM against JNK2; roughly 30 nM in the test with c-Jun phosphorylation [2] (A375 cells). Besides, the EC50 in the test with c-Jun phosphorylation [1] came to 118 nM; in the test with c-Jun phosphorylation [2] (setting [4]), 32 nM; in the test with c-Jun phosphorylation [2] (setting [5]) it was 32 nM.

On to `Cc1ccc(NC(=O)/C=C/CN(C)C)cc1C(=O)Nc1ccc(Nc2nccc(-c3cccnc3)n2)cc1` [JNK-IN-9], for which the EC50 was found to be 104 nM with c-Jun phosphorylation [1] and 117 nM with c-Jun phosphorylation [2] (setting [4]). On JNK3, this compound came in with an IC50 of 0.5 nM.

For `Cc1ccc(C(=O)Nc2ccc(Nc3nccc(-c4cccnc4)n3)cc2)cc1NC(=O)/C=C/CN(C)C` [JNK-IN-10], the EC50 in the test on c-Jun phosphorylation [1] came out at 173 nM; in the test on c-Jun phosphorylation [2] (setting [4]), 141 nM. This compound displayed an IC50 against JNK3 of 0.5 nM.

`CN(C)C/C=C/C(=O)Nc1cccc(C(=O)Nc2ccc(Nc3nccc(-c4c(-c5ccccc5)nn5ccccc45)n3)cc2)c1` [JNK-IN-11]: the EC50 in the test on phosphorylation of STAT3 was greater than 10000 nM; in the test on c-Jun phosphorylation [1], 48 nM; in the test with phosphorylation of RSK it was 20 nM; in the test on phosphorylation of Erk, 19 nM; in the test on phosphorylation of Akt it was greater than 10000 nM; in the test on phosphorylation of p38 it was 15 nM. The EC50 in [3] is greater than 10000 nM; with c-Jun phosphorylation [2] (A375 cells, anisomycin stimulation, high-throughput microscopy, Table 4, read-out: Cellular EC50 pc-Jun), less than 10 nM; in the test on c-Jun phosphorylation [2] (setting [4]) it was 8.6 nM. Further, the IC50 with c-Jun phosphorylation [1] was roughly 30 nM; against JNK3, 0.5 nM; against JNK1, 1.34 nM; against JNK2, 0.5 nM; with c-Jun phosphorylation [2] (A375 cells), roughly 10 nM.

For the compound `Oc1c2ccccc2c2c3c(cccc13)N=N2` [SP-600125, reference compound], the EC50 with c-Jun phosphorylation [1] came out at 7450 nM; in the test on c-Jun phosphorylation [2] (setting [4]) it was 1980 nM.

For `C=CC(=O)Nc1ccc(C(=O)Nc2cccc(Nc3nccc(-c4cccnc4)n3)c2)cc1` [ZG-9], the EC50 in the test on c-Jun phosphorylation [2] (setting [5]) amounted to 5460 nM.

Take `CN(C)C/C=C/C(=O)Nc1ccc(C(=O)Nc2cccc(Nc3nccc(-c4cccnc4)n3)c2)cc1` [ZG-10]: the EC50 with c-Jun phosphorylation [2] (setting [5]) came out at 2400 nM.
